One block for each compound: values may come before it.
Tests used:
Assay type in all cases: cell-based
M1 muscarinic receptor = molecular target: T1, M1 muscarinic receptor (Homo sapiens, UniProt P11229); test: Functional mobilization of intracellular calcium (FLIPR) in CHO cells expressing M1; details: for M1 Activity: CHO cells expressing M1, FLIPR calcium assay; for Emax: CHO, 100% efficacy = maximum response obtained with the Carbachol control
T1 construct: expressed in transfected cells; host or cells: CHO (M1-CHO)
T1 sequence (P11229 1-460): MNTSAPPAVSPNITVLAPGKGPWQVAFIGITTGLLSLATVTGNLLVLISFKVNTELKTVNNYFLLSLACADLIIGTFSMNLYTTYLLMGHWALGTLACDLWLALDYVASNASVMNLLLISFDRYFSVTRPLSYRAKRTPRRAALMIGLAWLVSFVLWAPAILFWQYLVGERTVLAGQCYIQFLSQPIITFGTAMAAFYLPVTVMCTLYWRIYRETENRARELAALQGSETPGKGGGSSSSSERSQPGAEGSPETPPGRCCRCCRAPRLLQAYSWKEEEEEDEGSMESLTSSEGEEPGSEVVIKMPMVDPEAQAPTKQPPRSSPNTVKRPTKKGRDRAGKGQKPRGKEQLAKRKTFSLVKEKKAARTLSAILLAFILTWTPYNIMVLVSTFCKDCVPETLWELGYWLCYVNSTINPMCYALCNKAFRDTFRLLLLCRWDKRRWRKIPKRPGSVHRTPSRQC
How it was run: (§1)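 Recombinant CHO cells loaded with Fluo-3 AM or Calcium 3 dye in pH 7.4 buffer containing 1 mM probenecid, with 0.5% final DMSO. For agonism, compound is added directly. For inhibition, it is preincubated 15 min, or co-applied, before carbachol at EC80. FLIPR fluorescence (ex 488, em 540 nm) is recorded for 60 s.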

M2 muscarinic receptor = molecular target: T2, M2 muscarinic receptor (Homo sapiens, UniProt P08172); test: Functional mobilization of intracellular calcium (FLIPR) in CHO cells expressing M2; details: for M2 Activity: CHO cells expressing M2, FLIPR calcium assay; for Emax: CHO, 100% efficacy = maximum response obtained with the Carbachol control
T2 construct: expressed in transfected cells; host or cells: CHO (M2-CHO)
T2 sequence (P08172 1-466): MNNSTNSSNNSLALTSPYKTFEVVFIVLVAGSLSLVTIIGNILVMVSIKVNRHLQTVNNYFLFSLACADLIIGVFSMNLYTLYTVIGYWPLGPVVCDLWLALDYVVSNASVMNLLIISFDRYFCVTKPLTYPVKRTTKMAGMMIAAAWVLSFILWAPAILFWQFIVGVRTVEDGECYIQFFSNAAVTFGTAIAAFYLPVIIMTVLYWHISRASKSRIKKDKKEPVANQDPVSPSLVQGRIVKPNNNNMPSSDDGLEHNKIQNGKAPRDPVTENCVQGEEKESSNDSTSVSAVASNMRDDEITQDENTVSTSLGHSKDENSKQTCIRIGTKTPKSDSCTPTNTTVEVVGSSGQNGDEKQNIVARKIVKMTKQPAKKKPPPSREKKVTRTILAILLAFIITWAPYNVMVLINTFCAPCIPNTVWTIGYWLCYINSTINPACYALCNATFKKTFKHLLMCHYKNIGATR
How it was run: as §1

M3 muscarinic receptor = molecular target: T3, M3 muscarinic receptor (Homo sapiens, UniProt P20309); test: Functional mobilization of intracellular calcium (FLIPR) in CHO cells expressing M3; details: for M3 Activity: CHO cells expressing M3, FLIPR calcium assay; for Emax: CHO, 100% efficacy = maximum response obtained with the Carbachol control
T3 construct: expressed in transfected cells; host or cells: CHO (M3-CHO)
How it was run: as §1

M4 muscarinic receptor = molecular target: T4, M4 muscarinic receptor (Homo sapiens, UniProt P08173); test: Functional mobilization of intracellular calcium (FLIPR) in CHO cells expressing M4; details: for M4 Activity: CHO cells expressing M4, FLIPR calcium assay; for Emax: CHO, 100% efficacy = maximum response obtained with the Carbachol control
T4 construct: expressed in transfected cells; host or cells: CHO (M4-CHO)
T4 sequence (P08173 1-479): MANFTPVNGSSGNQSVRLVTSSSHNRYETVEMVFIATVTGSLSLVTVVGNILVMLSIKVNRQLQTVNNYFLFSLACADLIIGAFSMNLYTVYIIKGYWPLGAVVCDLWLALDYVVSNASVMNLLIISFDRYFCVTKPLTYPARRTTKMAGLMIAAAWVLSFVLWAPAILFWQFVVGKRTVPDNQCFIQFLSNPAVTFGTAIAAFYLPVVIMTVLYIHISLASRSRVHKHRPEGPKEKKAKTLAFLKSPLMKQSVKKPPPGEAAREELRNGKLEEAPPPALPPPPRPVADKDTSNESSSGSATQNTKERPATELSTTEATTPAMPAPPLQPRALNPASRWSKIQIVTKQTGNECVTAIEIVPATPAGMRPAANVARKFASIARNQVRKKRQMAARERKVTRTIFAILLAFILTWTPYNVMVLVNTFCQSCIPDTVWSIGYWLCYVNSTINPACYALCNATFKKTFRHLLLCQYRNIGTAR
How it was run: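 Read-out: FLIPR fluorescence (ex 488, em 540 nm) over 60 s. Recombinant CHO lines are dye-loaded (Fluo-3 AM or Calcium 3) with 1 mM probenecid. For antagonist mode, compound is pre-incubated 15 min, or co-applied, then carbachol is added at 3× EC80 per subtype.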

T3 sequence (P20309 whole entry): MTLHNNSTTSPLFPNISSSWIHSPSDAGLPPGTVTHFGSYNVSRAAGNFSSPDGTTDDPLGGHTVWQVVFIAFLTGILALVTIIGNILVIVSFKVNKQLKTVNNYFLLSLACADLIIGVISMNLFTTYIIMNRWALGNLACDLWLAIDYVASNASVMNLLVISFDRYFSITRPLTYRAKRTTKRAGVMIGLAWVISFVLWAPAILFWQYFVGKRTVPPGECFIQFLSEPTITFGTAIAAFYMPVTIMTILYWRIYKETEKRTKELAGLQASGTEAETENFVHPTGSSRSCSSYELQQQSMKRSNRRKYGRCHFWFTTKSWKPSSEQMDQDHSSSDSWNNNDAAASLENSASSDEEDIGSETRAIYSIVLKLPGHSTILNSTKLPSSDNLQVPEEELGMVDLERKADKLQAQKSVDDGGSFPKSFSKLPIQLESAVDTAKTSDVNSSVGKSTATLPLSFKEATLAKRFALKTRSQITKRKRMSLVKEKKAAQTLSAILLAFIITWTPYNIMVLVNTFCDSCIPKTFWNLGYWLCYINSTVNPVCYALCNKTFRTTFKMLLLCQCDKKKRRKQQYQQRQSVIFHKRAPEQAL

SMILES: CC(C)CCN1CCC2(CC1)C[C@H](NC(=O)N(C)C)c1ccccc12 [compound 293]
- M1 Activity (M1 muscarinic receptor): + (activity was measured to be greater than 5.0 μM)
- Emax (M1 muscarinic receptor): < 25%
- M2 Activity (M2 muscarinic receptor): + (activity was measured to be greater than 5.0 μM)
- Emax (M2 muscarinic receptor): < 25%
- M3 Activity (M3 muscarinic receptor): + (activity was measured to be greater than 5.0 μM)
- Emax (M3 muscarinic receptor): < 25%
- M4 Activity (M4 muscarinic receptor): + (activity was measured to be greater than 5.0 μM)
- Emax (M4 muscarinic receptor): < 25%

SMILES: CC(C)CCN1CCC2(CC1)C[C@H](NC(=O)N1CCCC1)c1ccccc12 [compound 294]
- M1 Activity (M1 muscarinic receptor): + (activity was measured to be greater than 5.0 μM)
- Emax (M1 muscarinic receptor): < 25%
- M2 Activity (M2 muscarinic receptor): + (activity was measured to be greater than 5.0 μM)
- Emax (M2 muscarinic receptor): < 25%
- M3 Activity (M3 muscarinic receptor): + (activity was measured to be greater than 5.0 μM)
- Emax (M3 muscarinic receptor): < 25%
- M4 Activity (M4 muscarinic receptor): + (activity was measured to be greater than 5.0 μM)
- Emax (M4 muscarinic receptor): < 25%

- Emax (M1 muscarinic receptor): < 25%
- Emax (M2 muscarinic receptor): < 25%
- Emax (M3 muscarinic receptor): < 25%
- Emax (M4 muscarinic receptor): < 25%
SMILES: CC(C)(C)OC(=O)N1CCC2(CC1)C[C@H](NC(=O)C1CCCC1)c1ccccc12 [compound 295]
- M1 Activity (M1 muscarinic receptor): + (activity was measured to be greater than 5.0 μM)
- M2 Activity (M2 muscarinic receptor): + (activity was measured to be greater than 5.0 μM)
- M3 Activity (M3 muscarinic receptor): + (activity was measured to be greater than 5.0 μM)
- M4 Activity (M4 muscarinic receptor): + (activity was measured to be greater than 5.0 μM)

SMILES: CN(C)C(=O)N[C@H]1CC2(CCN(CCC(C)(C)C)CC2)c2ccccc21 [compound 297]
- M1 Activity (M1 muscarinic receptor): + (activity was measured to be greater than 5.0 μM)
- Emax (M1 muscarinic receptor): < 25%
- M2 Activity (M2 muscarinic receptor): + (activity was measured to be greater than 5.0 μM)
- Emax (M2 muscarinic receptor): < 25%
- M3 Activity (M3 muscarinic receptor): + (activity was measured to be greater than 5.0 μM)
- Emax (M3 muscarinic receptor): < 25%
- M4 Activity (M4 muscarinic receptor): + (activity was measured to be greater than 5.0 μM)
- Emax (M4 muscarinic receptor): < 25%

- Emax (M1 muscarinic receptor): < 25%
- Emax (M2 muscarinic receptor): < 25%
- Emax (M3 muscarinic receptor): < 25%
- Emax (M4 muscarinic receptor): < 25%
SMILES: CN(C)C(=O)N[C@H]1CC2(CCN(C(=O)OC(C)(C)C)CC2)c2ccccc21 [compound 298]
- M1 Activity (M1 muscarinic receptor): + (activity was measured to be greater than 5.0 μM)
- M2 Activity (M2 muscarinic receptor): + (activity was measured to be greater than 5.0 μM)
- M3 Activity (M3 muscarinic receptor): + (activity was measured to be greater than 5.0 μM)
- M4 Activity (M4 muscarinic receptor): + (activity was measured to be greater than 5.0 μM)

SMILES: CC(C)CCN1CCC2(CC1)C[C@H](NC(=O)C1CCCC1)c1ccccc12 [compound 299]
- M1 Activity (M1 muscarinic receptor): + (activity was measured to be greater than 5.0 μM)
- Emax (M1 muscarinic receptor): < 25%
- M2 Activity (M2 muscarinic receptor): + (activity was measured to be greater than 5.0 μM)
- Emax (M2 muscarinic receptor): < 25%
- M3 Activity (M3 muscarinic receptor): + (activity was measured to be greater than 5.0 μM)
- Emax (M3 muscarinic receptor): < 25%
- M4 Activity (M4 muscarinic receptor): + (activity was measured to be greater than 5.0 μM)
- Emax (M4 muscarinic receptor): < 25%

SMILES: CC(C)(C)CCN1CCC2(CC1)C[C@H](NC(=O)C1CC1)c1ccccc12 [compound 300]
- M1 Activity (M1 muscarinic receptor): +++ (activity was measured to be less than 2.0 μM)
- Emax (M1 muscarinic receptor): 25 to 100%
- M2 Activity (M2 muscarinic receptor): + (activity was measured to be greater than 5.0 μM)
- Emax (M2 muscarinic receptor): < 25%
- M3 Activity (M3 muscarinic receptor): + (activity was measured to be greater than 5.0 μM)
- Emax (M3 muscarinic receptor): < 25%
- M4 Activity (M4 muscarinic receptor): +++ (activity was measured to be less than 2.0 μM)
- Emax (M4 muscarinic receptor): < 25%

SMILES: C=CCCCN1CCC2(CC1)C[C@H](NC(=O)N1CCCC1)c1ccccc12 [compound 301]
- M1 Activity (M1 muscarinic receptor): + (activity was measured to be greater than 5.0 μM)
- Emax (M1 muscarinic receptor): < 25%
- M2 Activity (M2 muscarinic receptor): + (activity was measured to be greater than 5.0 μM)
- Emax (M2 muscarinic receptor): < 25%
- M3 Activity (M3 muscarinic receptor): + (activity was measured to be greater than 5.0 μM)
- Emax (M3 muscarinic receptor): < 25%
- M4 Activity (M4 muscarinic receptor): + (activity was measured to be greater than 5.0 μM)
- Emax (M4 muscarinic receptor): < 25%

From patent publication US8003660B2, “Modulators of muscarinic receptors” (Vertex Pharmaceuticals Incorporated, priority 2006, dated 2011)
